# Results from the supplement of paper PMC11208160.
# Assay: recombinant UMI read abundance after kanamycin selection (control-corrected) (log10(CPM+1)); higher = more efficient recombination; extreme values may be limits of the assay; sequences stand for … in AGTGCAGAGAAAATCGGCCAGTTTTCTCTGCCTGCAGTCCGCATGCCGTGGGACCCCTTGGGTTCTAACCTGTTGCCTAGATTTATGCAGCGGACTGCCTTTCTCCCAAAGTGATAAACCGG…AGGTTGGTTTCACT; site = the 11-nt donor
# In short: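 After plating on IPTG (0.07 mM) plus kanamycin, or unselected, in two replicates, recombinant UMIs were PCR-amplified across the donor–target junction and sequenced. The cells were Escherichia coli co-electroporated with a UMI-tagged donor and donor-binding-loop pair library and a target plasmid with a fixed target and T7-inducible IS621 bridge recombinase. Values are log10(CPM+1), with CPM averaged over replicates and scaled by control-derived factors.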
row,Sequence,recombinant UMI read abundance (log10)
1,ACCTCGACATGGACCGGTTTTCCCGGTAATCCGTATTTGGG (site ACCTAGACTCC),0.0526
2,ACCTCGACATGGACCGGTTTTCCCGGTAATCCGTATTTGGG (site ACCTCGACTCC),0.00574
3,ACCTCGACATGGACCGGTTTTCCCGGTAATCCGTATTTGGG (site ACCTGGACTCC),0.0333
4,ACCTCGACATGGACCGGTTTTCCCGGTAATCCGTATTTGGG (site ACCTTGACTCC),0
5,ACCTCTACATGGACCGGTTTTCCCGGTAATCCGTATTTGTG (site ACATCTACTCA),0.014
6,ACCTCTACATGGACCGGTTTTCCCGGTAATCCGTATTTGTG (site ACCTCTACTCA),0.0203
7,ACCTCTACATGGACCGGTTTTCCCGGTAATCCGTATTTGTG (site ACGTCTACTCA),0.0131
8,ACCTCTACATGGACCGGTTTTCCCGGTAATCCGTATTTGTG (site ACTTCTACTCA),0.0231
9,ACCTGGACATGGACCGGTTTTCCCGGTAATCCGTATTTGGG (site ACCTAGACTCC),0.00306
10,ACCTGGACATGGACCGGTTTTCCCGGTAATCCGTATTTGGG (site ACCTCGACTCC),0.00694
11,ACCTGGACATGGACCGGTTTTCCCGGTAATCCGTATTTGGG (site ACCTGGACTCC),0.0305
12,ACCTGGACATGGACCGGTTTTCCCGGTAATCCGTATTTGGG (site ACCTTGACTCC),0.0114
13,ACCTTCGCATGGACCGGTTTTCCCGGTAATCCGTATTTGGC (site ACCTTCGCTGC),1.56
14,ACCTTTCCATGGACCGGTTTTCCCGGTAATCCGTATTTGCT (site ACCTTTCCTAG),0
15,ACGAAAACATGGACCGGTTTTCCCGGTAATCCGTATTTGTT (site ACGAAAACTAA),1.37
16,ACGAAACCATGGACCGGTTTTCCCGGTAATCCGTATTTGGA (site ACGAAACCTTC),0
17,ACGAAGGCATGGACCGGTTTTCCCGGTAATCCGTATTTGAC (site ACGAAGGCTGT),2.46
18,ACGAAGTCATGGACCGGTTTTCCCGGTAATCCGTATTTGCA (site ACGAAGTCTTG),3.09
19,ACGAAGTCATGGACCGGTTTTCCCGGTAATCCGTATTTGCA (site AGGAAGACTTG),0

row,Sequence,recombinant UMI read abundance (log10)
1,ACGACGGCATGGACCGGTTTTCCCGGTAATCCGTATTTGAA (site ACGACGGCTTT),1.59
2,ACGAGGTCATGGACCGGTTTTCCCGGTAATCCGTATTTGAC (site ACGAGGTCTGT),2.91
3,ACGCAACCATGGACCGGTTTTCCCGGTAATCCGTATTTGCT (site ACGCAACCTAG),0
4,ACGCCGTCATGGACCGGTTTTCCCGGTAATCCGTATTTGGT (site ACGCCGTCTAC),1.61
5,ACGCGAACATGGACCGGTTTTCCCGGTAATCCGTATTTGTC (site ACACGAACTGA),2.62
6,ACGCGAACATGGACCGGTTTTCCCGGTAATCCGTATTTGTC (site ACCCGAACTGA),0
7,ACGCGAACATGGACCGGTTTTCCCGGTAATCCGTATTTGTC (site ACGCGAACTGA),2.38
8,ACGCGAACATGGACCGGTTTTCCCGGTAATCCGTATTTGTC (site ACTCGAACTGA),0
9,ACGCGTACATGGACCGGTTTTCCCGGTAATCCGTATTTGGA (site ACGCGTACTTC),1.12
10,ACGGAGACATGGACCGGTTTTCCCGGTAATCCGTATTTGCA (site ACGGAGACTTG),2.64
11,ACGGAGACATGGACCGGTTTTCCCGGTAATCCGTATTTGCA (site AGGAAGACTTG),0
12,ACGGCCTCATGGACCGGTTTTCCCGGTAATCCGTATTTGGT (site ACGGCCTCTAC),2.1
13,ACGGCGTCATGGACCGGTTTTCCCGGTAATCCGTATTTGTC (site ACGGCGTCTGA),3.22
14,ACGGGGCCATGGACCGGTTTTCCCGGTAATCCGTATTTGCA (site ACGGGGCCTTG),0
15,ACGGTGCCATGGACCGGTTTTCCCGGTAATCCGTATTTGAA (site ACGGTGCCTTT),0.00366
16,ACGTACACATGGACCGGTTTTCCCGGTAATCCGTATTTGCA (site ACGTACACTTG),2.71
17,ACGTCATCATGGACCGGTTTTCCCGGTAATCCGTATTTGTT (site ACGTCATCTAA),1.69
18,ACGTCGACATGGACCGGTTTTCCCGGTAATCCGTATTTGTT (site ACGTCGACTAA),0.654
19,ACGTGAGCATGGACCGGTTTTCCCGGTAATCCGTATTTGCC (site ACGTGAGCTGG),2.7
